Assay [1] deals with T1, Bcl-2-like protein 1 (Homo sapiens, UniProt Q07817). Description: Inhibition of Bak BH3 peptide binding to GST-tagged human Bcl-xL after 3 hrs by Western blotting-based GST pull-down assay. For orientation: In western blotting, separated proteins are transferred to a membrane and probed.
For assay [2], the target named is T2, Induced myeloid leukemia cell differentiation protein Mcl-1 (Homo sapiens, UniProt Q07820). Description: Inhibition of Bim BH3 peptide binding to GST-tagged human Mcl-1 after 3 hrs by Western blotting-based GST pull-down assay.
Assay [3] can be described thus: Selectivity ratio of IC50 for human Bcl-2 to IC50 for mouse Mcl-1.
Assay [4] addresses T2, Induced myeloid leukemia cell differentiation protein Mcl-1. Description: Binding affinity to Mcl-1 (unknown origin) by TR-FRET assay. On the technique in general: Time-resolved FRET reads energy transfer from a long-lived donor to a nearby acceptor.
Assay [5] has as its target T1, Bcl-2-like protein 1. Description: Inhibition of FITC-labeled Bak-BH3 peptide binding to Bcl-xL (unknown origin) by fluorescence polarization assay. On the technique in general: Polarisation of emitted light reports the rotation of a fluorescent probe.
Assay [6] has as its target T2, Induced myeloid leukemia cell differentiation protein Mcl-1. In words: Inhibition of FITC-labeled Bak-BH3 peptide binding to Mcl-1 (unknown origin) by fluorescence polarization assay.
For assay [7] the target is unchanged. Description: Inhibition of FITC-labeled Bim BH3 binding to GST-tagged Mcl-1 (unknown origin) preincubated for 2 mins followed by FITC-Bim-BH3 addition measured after 10 mins by fluorescence polarization assay.
For another assay, the target named is T3, Bcl-2-related protein A1 (Homo sapiens, UniProt Q16548).
T3 sequence (Q16548 whole entry): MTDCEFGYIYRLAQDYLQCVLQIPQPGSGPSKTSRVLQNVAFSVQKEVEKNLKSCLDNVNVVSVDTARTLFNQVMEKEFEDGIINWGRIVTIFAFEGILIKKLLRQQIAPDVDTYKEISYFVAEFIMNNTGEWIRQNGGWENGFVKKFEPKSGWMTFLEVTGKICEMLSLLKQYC
Description: Binding affinity to Bcl2A1 (unknown origin).

The target of assay [8] is T4, Apoptosis regulator Bcl-2 (Homo sapiens, UniProt P10415). Description: Inhibition of FAM-Bid binding to Bcl-2 (unknown origin) after 30 mins by fluorescence polarization assay.
In assay [9] the target is T2, Induced myeloid leukemia cell differentiation protein Mcl-1. Description: Inhibition of FAM-Bid binding to Mcl-1 (unknown origin) after 30 mins by fluorescence polarization assay.
The target is the same in assay [10]. In words: Inhibition of FITC-BID BH3 peptide binding to recombinant GST-tagged N-terminal/C-terminal truncated Mcl-1 (unknown origin) expressed in Escherichia coli BL21 (DE3) after 5 mins by fluorescence polarization assay.
In assay [11] the target is T1, Bcl-2-like protein 1. In words: Inhibition of FITC-BID BH3 peptide binding to recombinant GST-tagged C-terminal truncated Bcl-xL (unknown origin) expressed in Escherichia coli BL21 (DE3) after 5 mins by fluorescence polarization assay.
For assay [12], the target named is T4, Apoptosis regulator Bcl-2. In words: Inhibition of Bcl-2 (unknown origin) by fluorescence polarization assay.
Assay [13] addresses T1, Bcl-2-like protein 1. Description: Inhibition of Bcl-xL (unknown origin) by fluorescence polarization assay.
Assay [14] is filed under the species Homo sapiens. Description: Selectivity ratio of compound effect for Bcl-2 (unknown origin) to compound effect for Mcl-1 (unknown origin).
Assay [15] is filed under the species Homo sapiens. Description: Selectivity ratio of compound effect for Bcl-xL (unknown origin) to compound effect for Mcl-1 (unknown origin).

Where only a bound is given, the exact number is not on record here.

T2 sequence (Q07820 whole entry): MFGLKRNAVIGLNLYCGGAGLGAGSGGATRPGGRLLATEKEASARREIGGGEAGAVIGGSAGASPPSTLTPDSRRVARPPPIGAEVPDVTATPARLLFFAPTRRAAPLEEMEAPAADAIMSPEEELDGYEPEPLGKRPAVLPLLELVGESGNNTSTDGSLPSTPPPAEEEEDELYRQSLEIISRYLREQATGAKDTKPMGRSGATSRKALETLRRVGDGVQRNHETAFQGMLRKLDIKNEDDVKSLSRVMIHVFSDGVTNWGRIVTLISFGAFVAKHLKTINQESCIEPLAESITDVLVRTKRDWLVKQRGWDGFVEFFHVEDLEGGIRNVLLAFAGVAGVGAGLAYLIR
T1 sequence (Q07817 whole entry): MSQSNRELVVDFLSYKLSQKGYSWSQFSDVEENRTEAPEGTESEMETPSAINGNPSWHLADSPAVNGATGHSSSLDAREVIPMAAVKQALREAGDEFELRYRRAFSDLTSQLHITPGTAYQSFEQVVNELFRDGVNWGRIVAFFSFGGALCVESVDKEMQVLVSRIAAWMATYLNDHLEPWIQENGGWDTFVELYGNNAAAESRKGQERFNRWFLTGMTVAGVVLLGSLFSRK
T4 sequence (P10415 whole entry): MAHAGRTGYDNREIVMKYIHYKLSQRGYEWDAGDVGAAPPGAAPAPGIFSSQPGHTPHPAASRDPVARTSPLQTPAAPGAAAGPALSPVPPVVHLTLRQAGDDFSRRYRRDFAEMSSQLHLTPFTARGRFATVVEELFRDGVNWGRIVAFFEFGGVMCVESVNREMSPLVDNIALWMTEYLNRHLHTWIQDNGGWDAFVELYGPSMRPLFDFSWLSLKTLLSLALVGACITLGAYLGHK

Usually IC50 stands for the concentration needed to halve the response being measured. For `CC(C)Cc1cc(-c2ccc(-c3ccc(CCC(=O)O)cc3CC(C)C)cc2Cc2ccccc2)ccc1OCC(=O)O`, the IC50 on Bcl-2-like protein 1 [1] was found to be 1.5 µM; in assay [2], 4.9 µM.

For the compound `O=C(c1ccccc1O)c1[nH]c(Cl)c(Cl)c1-n1c(C(=O)c2ccccc2O)cc(Cl)c1Cl`, the Ratio IC50 in [3] was above 8.

For orientation: Ki means a measure of affinity in units of concentration, obtained from inhibition or displacement. In [4], `CC1(C)CCC(CN2CCN(c3ccc(C(=O)NS(=O)(=O)c4ccc(NCC5CCOCC5)c([N+](=O)[O-])c4)c(Oc4cnc5[nH]ccc5c4)c3)CC2)=C(c2ccc(Cl)cc2)C1` [VENETOCLAX] showed a Ki above 0.444 µM.

Take `CC(C)Oc1cc(C(=O)Nc2ccc(C(=O)Nc3ccc(C(=O)O)cc3OC(C)C)nc2OC(C)C)ccc1N`: the values for the IC50 (on Bcl-2-like protein 1 [5]; in assay [6]) were 0.394 µM and 10 µM, respectively.

In the case of `CC1=C(C2=C(C)C(=O)c3c(cc(O)c(O)c3Cc3ccccc3)C2=O)C(=O)c2cc(O)c(O)c(Cc3ccccc3)c2C1=O`, the IC50 in [7] worked out at 0.025 µM.

The compound `CN(C)CC[C@H](CSc1ccccc1)Nc1ccc(S(=O)(=O)NC(=O)c2ccc(N3CCN(Cc4ccccc4-c4ccc(Cl)cc4)CC3)cc2)cc1[N+](=O)[O-]` [ABT 737] showed a Ki on Bcl-2-related protein A1 above 20 µM.

What is called Kd is a measure of binding affinity in units of concentration. For `N#CC1=C2C(=NC1=O)c1cccc3c(N4CCSCC4)ccc2c13`, the Kd in assay [8] is 0.31 µM; in assay [9], 0.058 µM.

Turning to `Cc1cs/c(=N\C2CCCCC2)n1/N=C/c1cc(O)c(O)c(O)c1`, the results for the IC50 (in assay [10]; at Bcl-2-like protein 1 [11]) were 4.8 µM and above 50 µM, respectively.

With `Cc1c(S(C)(=O)=O)c(-c2cc(F)cc(N3CCN(c4ccc(NS(=O)(=O)c5ccc(N[C@H](CCN6CCC(O)CC6)CSc6ccccc6)c(S(=O)(=O)C(F)(F)F)c5)cc4)CC3)c2)c(-c2ccc(Cl)cc2)n1C(C)C`, the Ki (in assay [12]; on Bcl-2-like protein 1 [13]) was below 0.001 µM each time. The Selectivity ratio in the assay filed under Homo sapiens [14] and in the assay listed under Homo sapiens [15] was above 1000 throughout.

For the origin of these results see ChEMBL document CHEMBL4052581, “Expanding the Cancer Arsenal with Targeted Therapies: Disarmament of the Antiapoptotic Bcl-2 Proteins by Small Molecules” (J Med Chem, 2017).
